Source: patent US20150374673A1, “Combination Therapy for the Treatment of Nosocomial Pneumonia” (priority 2013, published 2015)

What was measured:
K. pneumoniae = experiment: MIC, CLSI broth microdilution in CAMHB with 0-10% pulmonary surfactant (avibactam fixed at 4 μg/mL in combination); format: cell-based; details: Klebsiella pneumoniae
Method: (§1) The bacterial strains used in this testing were part of the microbiological culture collection housed at AstraZeneca R&D Boston (AstraZeneca Research Collection, designated ARC). The panel of bacterial isolates used for this testing was comprised of five CLSI QC reference strains and the remainder were either recent clinical isolates expressing β-lactamases or isolates from the primary bacterial screening panels.
(§2) MIC values were determined using the CLSI broth microdilution methodology with slight variation. Stock compound mother plates were prepared and used to spot 2 μL aliquots of serial 2-fold drug dilutions to columns 1-11 of 96-well daughter plates using a Perkin-Elmer MiniTrak™ MultiPosition dispenser. […] An inoculum volume of 100 μL (5×10E^5 CFU/mL) in CAMHB containing 0, 1, 2.5, 5, or 10% pulmonary surfactant was added using a multichannel Finnpipette® to each well of the 96-well plate.
(§3) The minimum inhibitory concentration (MIC) values against each organism/drug combination were determined using broth microdilution methodology according to CLSI guidelines. The recommended reference bacterial strains for each test group and reference compounds were incorporated into each test. For Gram-negatives, the reference bacterial strains were Escherichia coli ATCC 25922, E. coli ATCC 35218, Klebsiella pneumoniae ATCC 700603, and Pseudomonas aeruginosa ATCC 27853. Staphylococcus aureus ATCC 29213 was the reference bacterial strain for the Gram-positives.
(§4) MIC values for individual isolates were read visually. The MICs for each compound or combination in pulmonary surfactant was compared to the compound or combination tested in CAMHB alone.

E. coli = experiment: as above; format: cell-based; details: Escherichia coli
Method: as §1, §2, §3, §4

[1] = Serum and epithelial lining fluid (ELF) pharmacokinetics of ceftazidime-avibactam human simulated regimen in infected and uninfected mice; details: for fT > MIC: human simulated CAZ-AVI 2000-500 mg q8h 2 h infusion
Method: Pathogen-free, female ICR mice weighing approximately 25 g were acquired from Harlan Sprague Dawley, Inc. (Indianapolis, Ind.) and utilized throughout these experiments. Animals were maintained and used in accordance to National Research Council recommendations, and provided food and water ad libitum. Mice were rendered neutropenic with 100 and 250 mg/kg intraperitoneal injections of cyclophosphamide (Cytoxan®; Bristol-Myers Squibb, Princeton, N.J.) given one and four days prior to inoculation, respectively. Three days prior to inoculation, mice were also given a single 5 mg/kg intraperitoneal injection of uranyl nitrate. This produces a predictable degree of renal impairment to slow drug clearance. Two hours prior to the initiation of antimicrobial therapy, mice were lightly anesthetized using isofluorane (2.5% v/v in 100% oxygen carrier) until the respiratory rate decreased upon visual inspection. Pneumonia was induced by the instillation of 0.05 mL of a 10^7 CFU inoculum of the test isolate suspended in 3% mucin in normal saline. While the mouse is anesthetized, the inoculum is delivered into the animal's oral cavity, blocking the nares and holding the mouse in a vertical position. Aspiration of bacteria into the lungs occurred as the animals began to spontaneously respire.
In these studies, we utilized the previously determined dosing regimen described above. Confirmatory serum pharmacokinetic studies were undertaken in infected mice. For these studies, infected neutropenic mice were dosed with the above calculated regimen and groups of six mice ? were euthanized at multiple time points throughout a 24 h period to confirm target exposures blood was collected via cardiac puncture and the serum samples were stored at −80° C. until analysis. Pharmacokinetic studies were undertaken to describe the epithelial lining fluid concentrations in infected mice. For these studies, infected neutropenic mice were dosed with the above calculated regimen and groups of six mice were euthanized at multiple time points throughout the third dosing period (i.e. 16-24 h). Once euthanized, serum and BAL samples were collected as described above. Serum and BAL samples were stored at −80° C. until analysis.

[2] = female, ICR, mouse, epithelial lining fluid (ELF) vs serum, ELF point Penetration Ratio, infected mice, ELF vs serum, third dosing interval
[3] = female, ICR, mouse, epithelial lining fluid (ELF) vs serum, ELF point Penetration Ratio, uninfected mice, ELF vs serum, third dosing interval

Compound: CC(C)(O/N=C(\C(=O)N[C@@H]1C(=O)N2C(C(=O)[O-])=C(C[n+]3ccccc3)CS[C@H]12)c1csc(N)n1)C(=O)O [ceftazidime, (6R,7R)-7-[[(2Z)-2-(2-amino-1,3-thiazol-4-yl)-2-(1-hydroxy-2-methyl-1-oxopropan-2-yl)oxyiminoacetyl]amino]-8-oxo-3-(pyridin-1-ium-1-ylmethyl)-5-thia-1-azabicyclo[4.2.0]oct-2-ene-2-carboxylate pentahydrate]
- MIC (K. pneumoniae; ATCC700603, K. pneumoniae ARC561 (ATCC 700603; SHV-18, OXA-2, OKP-6), surfactant 0%): 32 µg/mL
- MIC (K. pneumoniae; ATCC700603, K. pneumoniae ARC561 (ATCC 700603; SHV-18, OXA-2, OKP-6), surfactant 1%): 32 µg/mL
- MIC (K. pneumoniae; ATCC700603, K. pneumoniae ARC561 (ATCC 700603; SHV-18, OXA-2, OKP-6), surfactant 2.5%): 32 µg/mL
- MIC (K. pneumoniae; ATCC700603, K. pneumoniae ARC561 (ATCC 700603; SHV-18, OXA-2, OKP-6), surfactant 5%): 32 µg/mL
- MIC (K. pneumoniae; ATCC700603, K. pneumoniae ARC561 (ATCC 700603; SHV-18, OXA-2, OKP-6), surfactant 10%): 32 µg/mL
- MIC (K. pneumoniae; K. pneumoniae ARC1865 (Primary Screening Panel), surfactant 1%): 0.25 µg/mL
- MIC (K. pneumoniae; K. pneumoniae ARC1865 (Primary Screening Panel), surfactant 2.5%): 0.5 µg/mL
- MIC (K. pneumoniae; K. pneumoniae ARC1865 (Primary Screening Panel), surfactant 5%): 0.5 µg/mL
- MIC (K. pneumoniae; K. pneumoniae ARC1865 (Primary Screening Panel), surfactant 10%): 0.5 µg/mL
- MIC (K. pneumoniae; K. pneumoniae ARC1865 (Primary Screening Panel), surfactant concentration cell empty): 0.5 µg/mL
- MIC (K. pneumoniae; K. pneumoniae ARC2528 (Clinical isolate), surfactant 0%): 1 µg/mL
- MIC (K. pneumoniae; K. pneumoniae ARC2528 (Clinical isolate), surfactant 1%): 2 µg/mL
- MIC (K. pneumoniae; K. pneumoniae ARC2528 (Clinical isolate), surfactant 2.5%): 1 µg/mL
- MIC (K. pneumoniae; K. pneumoniae ARC2528 (Clinical isolate), surfactant 5%): 1 µg/mL
- MIC (K. pneumoniae; K. pneumoniae ARC2528 (Clinical isolate), surfactant 10%): 1 µg/mL
- MIC (K. pneumoniae; K. pneumoniae ARC2929 (KPC-3), surfactant 0%): > 64 µg/mL
- MIC (K. pneumoniae; K. pneumoniae ARC2929 (KPC-3), surfactant 1%): > 64 µg/mL
- MIC (K. pneumoniae; K. pneumoniae ARC2929 (KPC-3), surfactant 2.5%): > 64 µg/mL
- MIC (K. pneumoniae; K. pneumoniae ARC2929 (KPC-3), surfactant 5%): > 64 µg/mL
- MIC (K. pneumoniae; K. pneumoniae ARC2929 (KPC-3), surfactant 10%): > 64 µg/mL
- MIC (K. pneumoniae; K. pneumoniae ARC2945 (KPC-2, SHV-11, TEM-1, OXA-9), surfactant 0%): 64 µg/mL
- MIC (K. pneumoniae; K. pneumoniae ARC2945 (KPC-2, SHV-11, TEM-1, OXA-9), surfactant 1%): 64 µg/mL
- MIC (K. pneumoniae; K. pneumoniae ARC2945 (KPC-2, SHV-11, TEM-1, OXA-9), surfactant 2.5%): 64 µg/mL
- MIC (K. pneumoniae; K. pneumoniae ARC2945 (KPC-2, SHV-11, TEM-1, OXA-9), surfactant 5%): 64 µg/mL
- MIC (K. pneumoniae; K. pneumoniae ARC2945 (KPC-2, SHV-11, TEM-1, OXA-9), surfactant 10%): 64 µg/mL
- MIC (K. pneumoniae; K. pneumoniae ARC3713 (CTX-M-15, OXA-1/30, SHV-5, TEM-1), surfactant 0%): > 64 µg/mL
- MIC (K. pneumoniae; K. pneumoniae ARC3713 (CTX-M-15, OXA-1/30, SHV-5, TEM-1), surfactant 1%): > 64 µg/mL
- MIC (K. pneumoniae; K. pneumoniae ARC3713 (CTX-M-15, OXA-1/30, SHV-5, TEM-1), surfactant 2.5%): > 64 µg/mL
- MIC (K. pneumoniae; K. pneumoniae ARC3713 (CTX-M-15, OXA-1/30, SHV-5, TEM-1), surfactant 5%): > 64 µg/mL
- MIC (K. pneumoniae; K. pneumoniae ARC3713 (CTX-M-15, OXA-1/30, SHV-5, TEM-1), surfactant 10%): > 64 µg/mL
- MIC (E. coli; ATCC25922, E. coli ARC4 (CLSI QC strain, ATCC 25922), surfactant 0%): 0.25 µg/mL
- MIC (E. coli; ATCC25922, E. coli ARC4 (CLSI QC strain, ATCC 25922), surfactant 1%): 0.25 µg/mL
- MIC (E. coli; ATCC25922, E. coli ARC4 (CLSI QC strain, ATCC 25922), surfactant 2.5%): 0.25 µg/mL
- MIC (E. coli; ATCC25922, E. coli ARC4 (CLSI QC strain, ATCC 25922), surfactant 5%): 0.25 µg/mL
- MIC (E. coli; ATCC25922, E. coli ARC4 (CLSI QC strain, ATCC 25922), surfactant 10%): 0.25 µg/mL
- MIC (E. coli; ATCC35218, E. coli ARC016 (ATCC 35218, TEM-1), surfactant 0%): 0.12 µg/mL
- MIC (E. coli; ATCC35218, E. coli ARC016 (ATCC 35218, TEM-1), surfactant 1%): 0.12 µg/mL
- MIC (E. coli; ATCC35218, E. coli ARC016 (ATCC 35218, TEM-1), surfactant 2.5%): 0.12 µg/mL
- MIC (E. coli; ATCC35218, E. coli ARC016 (ATCC 35218, TEM-1), surfactant 5%): 0.12 µg/mL
- MIC (E. coli; ATCC35218, E. coli ARC016 (ATCC 35218, TEM-1), surfactant 10%): 0.12 µg/mL
- MIC (E. coli; E. coli ARC523 (W3110), surfactant 0%): 0.5 µg/mL
- MIC (E. coli; E. coli ARC523 (W3110), surfactant 1%): 0.5 µg/mL
- MIC (E. coli; E. coli ARC523 (W3110), surfactant 2.5%): 0.25 µg/mL
- MIC (E. coli; E. coli ARC523 (W3110), surfactant 5%): 0.5 µg/mL
- MIC (E. coli; E. coli ARC523 (W3110), surfactant 10%): 0.5 µg/mL
- MIC (E. coli; E. coli ARC3666 (CTX-M-15, OXA-1/30, SHV-31, TEM-1), surfactant 0%): 32 µg/mL
- MIC (E. coli; E. coli ARC3666 (CTX-M-15, OXA-1/30, SHV-31, TEM-1), surfactant 1%): 32 µg/mL
- MIC (E. coli; E. coli ARC3666 (CTX-M-15, OXA-1/30, SHV-31, TEM-1), surfactant 2.5%): 32 µg/mL
- MIC (E. coli; E. coli ARC3666 (CTX-M-15, OXA-1/30, SHV-31, TEM-1), surfactant 5%): 32 µg/mL
- MIC (E. coli; E. coli ARC3666 (CTX-M-15, OXA-1/30, SHV-31, TEM-1), surfactant 10%): 32 µg/mL
- MIC (E. coli; E. coli ARC3690 (CTX-M-15, SHV-12), surfactant 0%): 64 µg/mL
- MIC (E. coli; E. coli ARC3690 (CTX-M-15, SHV-12), surfactant 1%): 64 µg/mL
- MIC (E. coli; E. coli ARC3690 (CTX-M-15, SHV-12), surfactant 2.5%): 64 µg/mL
- MIC (E. coli; E. coli ARC3690 (CTX-M-15, SHV-12), surfactant 5%): 64 µg/mL
- MIC (E. coli; E. coli ARC3690 (CTX-M-15, SHV-12), surfactant 10%): 64 µg/mL
- fT > MIC ([1]; MIC 4, ELF, infected mice): 100%
- fT > MIC ([1]; MIC 4, ELF, uninfected mice): 100%
- fT > MIC ([1]; MIC 4, Serum, infected mice): 100%
- fT > MIC ([1]; MIC 4, Serum, uninfected mice): 100%
- fT > MIC ([1]; MIC 32, ELF, infected mice): 0%
- fT > MIC ([1]; MIC 32, ELF, uninfected mice): 34%
- fT > MIC ([1]; MIC 32, Serum, infected mice): 50%
- fT > MIC ([1]; MIC 32, Serum, uninfected mice): 62%
- Kp at 16 h [1, 2]: 2.13
- Kp at 18.5 h [1, 2]: 0.8
- Kp at 22 h ([1]; female, ICR, mouse, epithelial lining fluid (ELF) vs serum, ELF point Penetration Ratio, infected mice, 22 h, ELF vs serum, third dosing interval): 0.3
- Kp at 24 h [1, 2]: 0.95
- Kp at 16 h [1, 3]: 1.02
- Kp at 18.5 h [1, 3]: 0.8
- Kp at 24 h [1, 3]: 0.64
